The values that follow come from a melting point compilation (Tetko et al.; mined from patent text by program, amines drawn as free bases though some values may be those of a salt).

With `CON(C)C(=O)c1cc([N+](=O)[O-])c(F)cc1Cl`, the melting point amounted to 89 °C.

Regarding `COc1cc([N+](=O)[O-])c(CCCCC(=O)O)c([N+](=O)[O-])c1O`, the melting point lay within 168 to 170 °C.

`CCOc1c(C)c(NC(=O)CC(C)(C)C)c(C)c2c1OCC2c1ccc(C(C)C)cc1` (centres undefined) returned a melting point of 174 to 175 °C.

Consider `COc1cc(Nc2nccc(-c3ccc(NC(C)=O)cc3)n2)cc(OC)c1OC`, for which the melting point amounted to 239 °C.

With `COC1=C(OC)C(=O)C2=C(CCC(CCO)CC2)C1=O`, the melting point was in the range of 63 to 64 °C.

In turn, `COc1cc2c(=O)cc3c4ccccc4sn3c2c(OC)c1OC` came in with a melting point of 196 °C.

As for `CN1CCC(NC(=O)Nc2ccccc2CCc2cc(C(C)(C)C)c(O)c(C(C)(C)C)c2)CC1`, the melting point was in the range of 193 to 195 °C.

In turn, `O=C(O)c1ccc2c(c1)oc(=O)c1cc(C(=O)O)ccc12` returned a melting point of over 300 °C.

On to `CS(=O)(=O)c1ccc(C2=C(c3ccc(C#N)cc3)CCC2)cc1`, for which the melting point lay in the range of 163 to 164 °C.

`O=C(c1ccccc1)C(O)n1cncc1Cl` (centres undefined) showed a melting point of 201 to 203 °C.

`COc1ccccc1-c1coc2cc(O)ccc2c1=O` gave a melting point of 222 to 224 °C.

`NC(=O)c1ccccc1NC(=O)c1ccc(-n2nc(C(F)(F)F)cc2C(F)(F)F)cc1` showed a melting point of 195 to 196 °C.

As to `C/C(=C\c1ccc(OCCN2CCOCC2)cc1)c1ccc2c(c1)SC(C)(C)S2`, the melting point is 90 to 91 °C.

Regarding `O=C(O)CCCCC(=O)NCc1ccc2c(c1)C(=O)N(C1CCC(=O)NC1=O)C2=O` (centres undefined), the melting point was in the range of 144 to 146 °C.

In the case of `N=C(N)NC(=O)c1cn(-c2ccc3ccccc3n2)c2ncccc12`, the melting point turned out to be 242 °C.

In turn, `CNC(=O)C(=NOCF)c1ccccc1OC1CCCCO1` (centres undefined) came in with a melting point of 81 °C.

For `Cc1ccc2c(c1)c1cc(-c3ccc(Cl)cc3Cl)c(=O)n(C)c1n2CC#N`, the melting point worked out at 270 °C.

The compound `COc1ccc(-c2cc(-c3ccccc3)[nH]c2C(=O)Nc2cccc(CC(=O)NO)c2)cc1` returned a melting point of 205 to 206 °C.

`CC1(C(=O)O)CCc2cc(O)ccc2O1` (centres undefined) showed a melting point of 190 to 192 °C.

`CC(C)Cc1cc([N+](=O)[O-])c2c(c1O)C(=O)c1c(O)c(CC(C)C)cc([N+](=O)[O-])c1C2=O` showed a melting point of 198 to 200 °C.

In turn, `N#Cc1cnc2cc(/C=C/CN3CCOCC3)ccc2c1Nc1ccc(Cl)cc1Cl` registered a melting point of 175 to 176 °C.

Compound `COc1cc(C=CC(=O)Nc2cnc3ccc(C)cc3c2-c2ccccc2Br)cc(OC)c1OC(C)=O` had a melting point of 238 to 240 °C.

In the case of `CCOCCOC(=O)C(=O)Nc1nc(-c2ccc(OCC)cc2)cs1`, the melting point is 139 to 140 °C.

The compound `CS(=O)(=O)Nc1ccc(CCN2CCN(C(=O)c3ccc4[nH]ccc4c3)CC2)cc1` registered a melting point of 94 to 97 °C.

`Nc1nc2c(c(=O)n1N)Cc1nc(N)n(N)c(=O)c1C2` returned a melting point of over 300 °C.

`CS(=O)(=O)c1cc([N+](=O)[O-])c(C(=O)O)cc1N(CCBr)CCBr` had a melting point of 174 to 176 °C.

`COC(=O)C(C)NC(=O)c1cc2cc(Cl)ccc2[nH]1` (single isomer, unassigned; (+)) yielded a melting point of 199 to 201 °C.

`O=C(O)CCCC/C=C(/c1cccnc1)c1cccs1` returned a melting point of 84 to 85 °C.

Consider `CC(=O)Oc1c(C)c2c(-c3ccc(C(C)C)cc3)coc2c2ccccc12`, for which the melting point fell in the range of 118 to 119 °C.

Compound `COC(Cn1ncc(-c2ccc(S(C)(=O)=O)cc2)c(-c2ccc(F)cc2)c1=O)c1ccccc1` (centres undefined) came in with a melting point of 135 to 137 °C.

As to `NS(=O)(=O)c1ccccc1SCCF`, the melting point was in the range of 83 to 85 °C.

On to `Cc1c(C)n(CCc2ccccc2)c(C)c(C(=O)Nc2ccccc2)c1=O`, for which the melting point was 191 to 193 °C.

`C(=C\c1nc(COc2ccc(CCCCn3cncn3)cc2)co1)/c1ccccc1` showed a melting point of 94 to 95 °C.

In the case of `COc1ccc(CN2C(=O)CN(Cc3ccc4c(OC)ccnc4c3)S2(=O)=O)c(OC)c1`, the melting point was 128 to 132 °C.

Broadly, the melting point is the temperature, or range, at which the solid turns liquid.
